Experimental data taken from article PMC8865417, “Receptor Interaction Profiles of 4-Alkoxy-3,5-Dimethoxy-Phenethylamines (Mescaline Derivatives) and Related Amphetamines” (Frontiers in Pharmacology, 2022).
Where two headings read alike, the source gives them in different places.

Columns and labels:
h5-HT2A receptor [1] = target: T1, h5-HT2A receptor (Homo sapiens, UniProt P28223); conditions: read-out: h5-HT2A Receptor binding Ki ± SD; cited from earlier work
T1 construct: expressed in transfected cells; host or cells: HEK 293 cells (membrane preparations)

humans = conditions: ref Shulgin and Shulgin 1991, cited from earlier work; for Duration of action: humans; for Duration of action / Human oral dose: Shulgin and Shulgin 1997, Trachsel et al., 2013; for Human oral dose: psychedelic dose in humans
mouse TAAR1 = target: T2, mouse TAAR1 (Mus musculus, UniProt Q923Y8); assay: Radioligand binding at mouse TAAR1 ([3H]RO5166017)
T2 construct: expressed in transfected cells; host or cells: HEK 293 cells (membrane preparations)

hDAT = target: T3, hDAT (Homo sapiens, UniProt Q01959); assay: Radioligand binding at hDAT ([3H]WIN35,428)
T3 construct: expressed in transfected cells; host or cells: HEK 293 cells (membrane preparations)

[2] = target: T4, dopaminergic hD2 receptor (Homo sapiens, UniProt P14416); assay: Radioligand binding at dopaminergic hD2 receptor ([3H]spiperone)
T4 construct: expressed in transfected cells; host or cells: HEK 293 cells (membrane preparations)

hα2A adrenergic receptor = target: T5, hα2A adrenergic receptor (Homo sapiens, UniProt P08913); assay: Radioligand binding at hα2A adrenergic receptor ([3H]rauwolscine)
T5 construct: expressed in transfected cells; host or cells: Chinese hamster lung cells (membrane preparations)
T5 sequence (P08913 1-465): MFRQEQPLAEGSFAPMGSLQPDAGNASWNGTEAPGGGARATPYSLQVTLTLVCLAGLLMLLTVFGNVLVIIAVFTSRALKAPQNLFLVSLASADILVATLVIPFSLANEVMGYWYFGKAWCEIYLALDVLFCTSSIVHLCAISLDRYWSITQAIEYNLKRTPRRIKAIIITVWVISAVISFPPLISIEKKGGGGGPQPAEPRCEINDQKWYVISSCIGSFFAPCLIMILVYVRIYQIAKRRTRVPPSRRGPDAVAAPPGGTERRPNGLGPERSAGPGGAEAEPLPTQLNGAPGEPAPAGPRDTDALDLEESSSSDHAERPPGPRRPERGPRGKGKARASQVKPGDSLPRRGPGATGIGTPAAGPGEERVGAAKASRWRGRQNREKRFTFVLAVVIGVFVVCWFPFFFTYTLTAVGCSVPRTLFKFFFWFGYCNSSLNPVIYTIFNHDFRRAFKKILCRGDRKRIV

hα1A adrenergic receptor = target: T6, hα1A adrenergic receptor (Homo sapiens, UniProt P35348); assay: Radioligand binding at hα1A adrenergic receptor ([3H]prazosin); conditions: mean ± SD
T6 construct: expressed in transfected cells; host or cells: Chinese hamster ovary cells (membrane preparations)
T6 sequence (P35348 1-466): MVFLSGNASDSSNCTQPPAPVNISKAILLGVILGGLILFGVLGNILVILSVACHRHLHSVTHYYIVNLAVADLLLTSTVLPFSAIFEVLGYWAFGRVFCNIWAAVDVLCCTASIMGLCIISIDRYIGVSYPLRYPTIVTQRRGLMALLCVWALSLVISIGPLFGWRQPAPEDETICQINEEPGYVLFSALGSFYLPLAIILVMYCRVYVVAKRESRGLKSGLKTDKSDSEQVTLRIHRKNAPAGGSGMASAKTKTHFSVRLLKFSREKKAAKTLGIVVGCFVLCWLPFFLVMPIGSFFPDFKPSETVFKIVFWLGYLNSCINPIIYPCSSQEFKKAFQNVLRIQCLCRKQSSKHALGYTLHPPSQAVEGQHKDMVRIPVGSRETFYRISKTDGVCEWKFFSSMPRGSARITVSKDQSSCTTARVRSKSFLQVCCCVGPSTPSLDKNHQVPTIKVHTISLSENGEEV

hNET = target: T7, hNET (Homo sapiens, UniProt P23975); assay: Radioligand binding at hNET (N-methyl-[3H]nisoxetine)
T7 construct: expressed in transfected cells; host or cells: HEK 293 cells (membrane preparations)

human 5-HT2A receptor [3] = target: T8, human 5-HT2A receptor (Homo sapiens, UniProt P28223); parameters: expressed in transfected cells; host or cells: NIH-3T3 cells (mouse embryonic fibroblasts); conditions: read-out: h5-HT2A Activation potency EC50 ± SD; mescaline; ref Rickli et al. (2016); cited from earlier work
human 5-HT2B receptor = human 5-HT2B receptor (Homo sapiens, UniProt P41595); conditions: for EC50: h5-HT2B Activation potency EC50 ± SD, HEK 293 cells, calcium FLIPR, mean ± SD
h5-HT2A receptor [4] = target: T1, h5-HT2A receptor; assay: Radioligand binding at h5-HT2A receptor ([3H]ketanserin); conditions: for Ki: h5-HT2A Receptor binding Ki ± SD, [3H]ketanserin, mean ± SD
hSERT = target: T9, hSERT (Homo sapiens, UniProt P31645); assay: Radioligand binding at hSERT ([3H]citalopram)
T9 construct: expressed in transfected cells; host or cells: HEK 293 cells (membrane preparations)

rat TAAR1 = target: T10, rat TAAR1 (Rattus norvegicus, UniProt Q923Y9); assay: Radioligand binding at rat TAAR1 ([3H]RO5166017)
T10 construct: expressed in transfected cells; host or cells: HEK 293 cells (membrane preparations)

h5-HT1A receptor = target: T11, h5-HT1A receptor (Homo sapiens, UniProt P08908); assay: Radioligand binding at h5-HT1A receptor ([3H]8-OH-DPAT)
T11 construct: expressed in transfected cells; host or cells: HEK 293 cells (membrane preparations)
T11 sequence (P08908 1-422): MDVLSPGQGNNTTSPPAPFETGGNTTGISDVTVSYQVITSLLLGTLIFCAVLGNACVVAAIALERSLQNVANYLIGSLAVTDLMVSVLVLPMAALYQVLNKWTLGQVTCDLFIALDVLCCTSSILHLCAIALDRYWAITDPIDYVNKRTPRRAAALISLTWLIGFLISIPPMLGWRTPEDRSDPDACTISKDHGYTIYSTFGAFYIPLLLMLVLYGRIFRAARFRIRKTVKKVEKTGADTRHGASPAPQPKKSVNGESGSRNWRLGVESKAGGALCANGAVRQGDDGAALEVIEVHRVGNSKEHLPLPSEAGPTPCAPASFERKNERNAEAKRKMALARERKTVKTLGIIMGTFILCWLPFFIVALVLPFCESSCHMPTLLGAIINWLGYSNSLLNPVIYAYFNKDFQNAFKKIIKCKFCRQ

h5-HT2C receptor = target: T12, h5-HT2C receptor (Homo sapiens, UniProt P28335); assay: biochemical; assay type: binding; conditions: [3H]mesulergine; mean ± SD; read-out: h5-HT2C Receptor binding Ki ± SD
T12 construct: expressed in transfected cells; host or cells: HEK 293 cells (membrane preparations)
T12 sequence (P28335 33-458): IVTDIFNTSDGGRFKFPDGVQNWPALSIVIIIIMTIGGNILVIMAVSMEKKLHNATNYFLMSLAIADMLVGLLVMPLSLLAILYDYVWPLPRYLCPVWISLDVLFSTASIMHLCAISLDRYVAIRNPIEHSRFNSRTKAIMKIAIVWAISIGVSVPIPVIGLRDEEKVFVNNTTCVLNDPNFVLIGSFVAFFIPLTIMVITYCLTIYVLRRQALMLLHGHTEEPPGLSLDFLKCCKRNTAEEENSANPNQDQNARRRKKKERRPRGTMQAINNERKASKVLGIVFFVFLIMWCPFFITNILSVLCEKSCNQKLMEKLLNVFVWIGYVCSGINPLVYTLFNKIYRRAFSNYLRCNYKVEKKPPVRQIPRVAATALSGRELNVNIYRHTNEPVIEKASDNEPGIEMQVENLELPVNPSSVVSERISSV

human TAAR1 = target: T13, human TAAR1 (Homo sapiens, UniProt Q96RJ0); assay: Activity at the human TAAR1 (cAMP assay, HEK 293 cells); assay type: cell-based
T13 construct: expressed in transfected cells; host or cells: HEK 293 cells
T13 sequence (Q96RJ0 1-339): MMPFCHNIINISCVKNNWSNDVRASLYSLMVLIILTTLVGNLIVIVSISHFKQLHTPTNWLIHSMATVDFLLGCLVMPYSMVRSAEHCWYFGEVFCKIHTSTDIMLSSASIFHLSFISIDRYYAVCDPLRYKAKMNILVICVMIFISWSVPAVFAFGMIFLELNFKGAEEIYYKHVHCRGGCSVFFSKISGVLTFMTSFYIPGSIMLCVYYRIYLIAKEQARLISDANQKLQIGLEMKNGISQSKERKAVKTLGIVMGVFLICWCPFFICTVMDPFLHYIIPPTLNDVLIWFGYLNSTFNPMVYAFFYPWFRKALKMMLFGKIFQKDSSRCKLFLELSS
Method: Once 80–90% confluency was reached, the cells were collected by removing the medium, washing with PBS and then adding 5 ml of trypsin/EDTA solution for 5 min at 37°C. Next, 45 ml of medium was added and the entire mixture was transferred into a falcon tube. The tube was then centrifuged at room temperature for 3 min at 900 revolutions per minute (rpm). Next, the supernatant was removed in order to resuspend the remaining cell pellet in fresh medium to 5 × 10^5 cells/ml. Hundred microliter of the cells was transferred into a 96-well plate ([…]; BIOCOAT 6640, Becton Dickinson, Allschwil, Switzerland) and incubated for 20 h at 37°C.
For the cAMP assay, the aspirated medium was replaced with 50 μl PBS without Ca^2+ and Mg^2+ ions. Using snap inversion, the PBS was extracted and the plate was gently tapped against tissue. Next, 90 μl of Krebs-Ringer Bicarbonate buffer (KRB, Sigma-Aldrich) containing 1 mM IBMX was added and incubated for 60 min at 37°C and 5% CO2/95% air. Each test compound was examined in duplicate in a concentration range between 300 pM and 30 μM. A standard curve with a range of cAMP concentrations (0.13 nM–10 μM) was created for each 96-well plate. Each experiment was accompanied with a reference plate that included RO5256390, β-phenylethylamine and p-tyramine. The cells were exposed to either 30 μl of compound solution, 30 μl of β-phenylethylamine (as maximal response), or a basal control in PBS (containing 1 mM IBMX) for 40 min at 37°C. Next, under forceful shaking using black lids, the cells were exposed to 50 μl of 3× detection mix solution (composed of Ru-cAMP Alexa700 anti-cAMP antibody and lysis buffer) for 120 min at room temperature. Using the NanoScan reader (Innovate Optische Messtechnik, Berlin, Germany; 456 nm excitation wavelength; 630 and 700 nm emission wavelengths), the fluorescence was examined and the FRET signal was determined using the following equation; FRET (700 nm)- P × FRET (630 nm), where P = Ru (700 nm)/Ru (630 nm).

human 5-HT2A receptor [5] = target: T8, human 5-HT2A receptor; conditions: for Emax: NIH3T3, read-out: h5-HT2A Activation efficacy max ± SD, relative to 5-HT = 100%
head twitch response = system: head twitch response; parameters: method as in Halberstadt et al. (2019); conditions: ref Halberstadt et al. (2019); cited from earlier work

T2 sequence (Q923Y8 whole entry): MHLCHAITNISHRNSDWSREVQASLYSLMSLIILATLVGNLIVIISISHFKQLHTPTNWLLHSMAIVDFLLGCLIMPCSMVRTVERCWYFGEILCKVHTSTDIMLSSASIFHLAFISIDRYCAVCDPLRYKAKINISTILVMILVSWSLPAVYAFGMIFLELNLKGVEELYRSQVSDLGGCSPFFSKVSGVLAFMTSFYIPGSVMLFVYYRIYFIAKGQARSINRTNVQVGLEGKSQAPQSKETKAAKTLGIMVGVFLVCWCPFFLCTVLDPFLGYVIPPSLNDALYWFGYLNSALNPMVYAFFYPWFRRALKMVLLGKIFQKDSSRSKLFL
T3 sequence (Q01959 whole entry): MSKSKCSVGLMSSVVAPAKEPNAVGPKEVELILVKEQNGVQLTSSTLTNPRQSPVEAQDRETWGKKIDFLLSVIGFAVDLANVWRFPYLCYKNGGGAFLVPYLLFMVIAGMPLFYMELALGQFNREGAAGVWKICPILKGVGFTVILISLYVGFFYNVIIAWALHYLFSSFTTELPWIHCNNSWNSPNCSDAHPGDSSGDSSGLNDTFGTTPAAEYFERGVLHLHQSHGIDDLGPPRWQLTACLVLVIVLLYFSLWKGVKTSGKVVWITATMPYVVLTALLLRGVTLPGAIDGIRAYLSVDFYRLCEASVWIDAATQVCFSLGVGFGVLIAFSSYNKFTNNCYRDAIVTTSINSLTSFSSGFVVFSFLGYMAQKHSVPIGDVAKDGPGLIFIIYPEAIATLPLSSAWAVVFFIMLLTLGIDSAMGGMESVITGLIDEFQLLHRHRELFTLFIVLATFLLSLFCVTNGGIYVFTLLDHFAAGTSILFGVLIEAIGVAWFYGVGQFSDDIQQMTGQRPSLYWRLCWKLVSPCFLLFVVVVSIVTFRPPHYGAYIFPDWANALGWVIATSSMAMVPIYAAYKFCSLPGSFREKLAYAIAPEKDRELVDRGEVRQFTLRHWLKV
T4 sequence (P14416 whole entry): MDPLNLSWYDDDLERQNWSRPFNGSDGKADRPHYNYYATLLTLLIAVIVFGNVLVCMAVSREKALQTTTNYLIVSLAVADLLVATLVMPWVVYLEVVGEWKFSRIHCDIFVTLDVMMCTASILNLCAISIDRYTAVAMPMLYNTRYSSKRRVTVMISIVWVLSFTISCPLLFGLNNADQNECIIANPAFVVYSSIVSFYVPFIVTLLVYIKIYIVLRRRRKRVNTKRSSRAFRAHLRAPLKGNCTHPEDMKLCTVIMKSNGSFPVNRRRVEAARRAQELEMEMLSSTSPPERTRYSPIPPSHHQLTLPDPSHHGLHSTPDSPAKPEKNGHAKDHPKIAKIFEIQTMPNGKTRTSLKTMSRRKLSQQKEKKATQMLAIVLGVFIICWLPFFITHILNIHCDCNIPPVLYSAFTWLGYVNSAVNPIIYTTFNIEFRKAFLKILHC
Sequence of human 5-HT2B receptor (P41595 whole entry): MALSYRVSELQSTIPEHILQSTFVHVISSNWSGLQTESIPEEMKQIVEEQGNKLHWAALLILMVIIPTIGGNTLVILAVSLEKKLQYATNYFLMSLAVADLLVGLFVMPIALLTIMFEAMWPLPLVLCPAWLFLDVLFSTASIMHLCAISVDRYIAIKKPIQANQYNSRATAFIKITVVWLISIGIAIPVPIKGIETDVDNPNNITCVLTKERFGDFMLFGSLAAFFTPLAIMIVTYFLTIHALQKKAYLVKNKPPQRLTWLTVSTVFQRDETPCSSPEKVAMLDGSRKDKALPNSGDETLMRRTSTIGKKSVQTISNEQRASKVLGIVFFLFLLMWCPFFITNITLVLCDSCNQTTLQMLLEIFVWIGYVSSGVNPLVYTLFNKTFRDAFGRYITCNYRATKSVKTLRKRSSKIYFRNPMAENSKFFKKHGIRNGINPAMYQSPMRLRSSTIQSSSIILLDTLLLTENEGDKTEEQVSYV
T10 sequence (Q923Y9 whole entry): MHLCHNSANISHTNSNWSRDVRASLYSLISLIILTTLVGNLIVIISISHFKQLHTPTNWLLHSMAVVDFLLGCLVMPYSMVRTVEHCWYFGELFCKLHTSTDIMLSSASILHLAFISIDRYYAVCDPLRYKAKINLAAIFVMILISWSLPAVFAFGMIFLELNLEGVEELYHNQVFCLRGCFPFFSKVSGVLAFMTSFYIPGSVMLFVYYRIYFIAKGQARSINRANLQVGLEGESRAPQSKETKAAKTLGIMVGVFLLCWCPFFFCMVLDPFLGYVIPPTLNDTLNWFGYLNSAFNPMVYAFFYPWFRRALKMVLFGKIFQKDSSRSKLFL
T8 sequence (P28223 whole entry): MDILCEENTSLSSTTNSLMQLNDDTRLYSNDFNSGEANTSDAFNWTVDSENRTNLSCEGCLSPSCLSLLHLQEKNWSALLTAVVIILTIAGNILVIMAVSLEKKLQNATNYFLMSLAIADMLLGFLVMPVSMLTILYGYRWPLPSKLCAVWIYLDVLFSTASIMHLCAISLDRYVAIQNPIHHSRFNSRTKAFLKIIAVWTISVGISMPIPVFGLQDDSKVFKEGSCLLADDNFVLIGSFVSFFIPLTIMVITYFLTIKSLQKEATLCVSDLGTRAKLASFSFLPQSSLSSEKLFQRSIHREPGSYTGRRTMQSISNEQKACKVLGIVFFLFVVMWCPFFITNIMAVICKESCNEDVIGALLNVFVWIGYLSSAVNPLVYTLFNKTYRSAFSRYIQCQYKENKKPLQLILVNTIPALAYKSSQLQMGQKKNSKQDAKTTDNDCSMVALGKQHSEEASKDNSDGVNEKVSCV
T1 sequence (P28223 whole entry): as above
T9 sequence (P31645 whole entry): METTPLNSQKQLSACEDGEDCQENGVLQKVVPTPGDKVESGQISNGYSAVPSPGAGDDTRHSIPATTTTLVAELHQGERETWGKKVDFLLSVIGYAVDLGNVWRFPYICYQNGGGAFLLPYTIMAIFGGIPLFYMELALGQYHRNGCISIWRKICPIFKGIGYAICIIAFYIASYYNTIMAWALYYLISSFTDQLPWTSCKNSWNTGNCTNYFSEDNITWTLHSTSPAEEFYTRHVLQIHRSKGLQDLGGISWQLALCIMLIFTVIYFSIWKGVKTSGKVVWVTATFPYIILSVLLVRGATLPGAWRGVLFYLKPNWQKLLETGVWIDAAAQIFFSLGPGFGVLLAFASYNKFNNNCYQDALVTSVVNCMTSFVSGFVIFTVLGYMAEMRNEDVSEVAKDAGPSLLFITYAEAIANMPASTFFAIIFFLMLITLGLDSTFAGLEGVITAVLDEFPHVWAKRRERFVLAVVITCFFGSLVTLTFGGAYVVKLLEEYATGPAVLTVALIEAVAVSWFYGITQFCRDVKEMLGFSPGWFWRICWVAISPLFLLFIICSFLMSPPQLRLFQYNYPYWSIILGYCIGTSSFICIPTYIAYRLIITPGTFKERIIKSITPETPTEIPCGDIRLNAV
T7 sequence (P23975 whole entry): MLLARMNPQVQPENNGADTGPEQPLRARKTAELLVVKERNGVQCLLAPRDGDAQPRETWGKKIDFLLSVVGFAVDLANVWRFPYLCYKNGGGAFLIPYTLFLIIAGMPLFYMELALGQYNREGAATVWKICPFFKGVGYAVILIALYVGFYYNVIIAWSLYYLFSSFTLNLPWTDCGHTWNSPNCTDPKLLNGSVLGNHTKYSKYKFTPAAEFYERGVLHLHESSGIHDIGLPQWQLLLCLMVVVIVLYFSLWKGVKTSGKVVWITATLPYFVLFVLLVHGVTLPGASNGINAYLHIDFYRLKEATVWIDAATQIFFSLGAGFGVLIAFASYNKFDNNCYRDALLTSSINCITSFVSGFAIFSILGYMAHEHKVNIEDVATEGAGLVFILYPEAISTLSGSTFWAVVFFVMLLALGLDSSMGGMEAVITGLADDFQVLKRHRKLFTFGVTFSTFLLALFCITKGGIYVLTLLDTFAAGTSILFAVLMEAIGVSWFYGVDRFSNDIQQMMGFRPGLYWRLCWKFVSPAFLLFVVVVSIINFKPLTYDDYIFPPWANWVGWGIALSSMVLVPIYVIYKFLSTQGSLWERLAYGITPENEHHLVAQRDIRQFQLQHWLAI

Row | Compound | Psychedelic / active dose in humans (humans) | Ki (mouse TAAR1) | Ki (hDAT) | Ki [2] | Ki (hα2A adrenergic receptor) | Ki (hα1A adrenergic receptor) | Ki (hNET) | EC50 (human 5-HT2B receptor) | Ki (h5-HT2A receptor [4]) | Ki (hSERT) | Ki (rat TAAR1) | Ki (h5-HT1A receptor) | Ki (h5-HT2C receptor) | EC50 (human 5-HT2A receptor [5]) | Emax (human 5-HT2A receptor [5]) | other results
1 | COc1cc(CCN)c(OC)cc1Br [2C-B] | – | – | – | – | – | – | – | – | – | – | – | – | – | – | – | Ki (h5-HT2A receptor [1]): 0.0069 ± 0.0018 µM
2 | COc1cc(CCN)cc(OC)c1OC [compound 5, 3,4,5-trimethoxyphenethylamine] | 180 to 360 mg | > 4.2 µM | > 8.5 µM | > 6.3 µM | 2 µM | > 8.7 µM | > 9.7 µM | > 10 µM | 9.4 µM | > 7.5 µM | 3 µM | 6.7 µM | 9.9 µM | – | – | Duration of action (humans; listed as mescaline): 8 to 12 h; Human oral dose (humans): 180 to 360 mg; EC50 (human 5-HT2A receptor [3]): 10 µM
3 | COc1cc(CC(C)N)cc(OC)c1OC (stereo not drawn) [compound 6, 3,4,5-trimethoxyamphetamine] | 100 to 200 mg | 1.8 µM | > 8.5 µM | > 6.3 µM | 4.03 µM | > 8.7 µM | > 9.7 µM | > 10 µM | > 12 µM | > 7.5 µM | 3.2 µM | > 5.6 µM | – | 1.7 ± 0.4 µM | 40 to 73% | Duration of action (humans): 6 to 8 h; Human oral dose (humans; listed as TMA): 100 to 250 mg; EC50 (human TAAR1): > 10 µM
4 | CCOc1c(OC)cc(CC(C)N)cc1OC (stereo not drawn) [compound 21, 3,5-dimethoxy-4-ethoxyamphetamine] | – | > 4.2 µM | > 8.5 µM | > 6.3 µM | > 5.1 µM | > 8.7 µM | > 9.7 µM | 0.095 ± 0.13 µM | 3.7 µM | > 7.5 µM | > 4.7 µM | > 5.6 µM | 4.9 µM | 0.16 ± 0.05 µM | 86 to 102% | Emax (human 5-HT2B receptor; HEK293, read-out: h5-HT2B Activation efficacy max ± SD, relative to 5-HT = 100%): 18 to 29%; Head twitch response (head twitch response): induced a head twitch response with almost identical potency; Selectivity 5-HT2A vs. 5-HT2C (h5-HT2A receptor [4]; binding ratio): 1.3
